Data reported in PMC5971037, “Synthesis and evaluation of antimicrobial, antitubercular and anticancer activities of 2-(1-benzoyl-1H-benzo[d]imidazol-2-ylthio)-N-substituted acetamides” (Chemistry Central Journal, 2018).
≈ marks a conversion by molar mass, not a printed value. Like-named read-outs stand apart in the source and are kept apart here.

Columns and labels:
C. albicans [1] = assay: microbe, parasite or virus in culture; conditions: Candida albicans, 48 h, read-out: MIC C. albicans
A. niger [2] = assay: microbe, parasite or virus in culture; conditions: Aspergillus niger, 168 h, read-out: MIC A. niger
S. typhi [3] = assay: Tube dilution MIC; assay type: cell-based; conditions: Salmonella enterica, 24 h, read-out: MIC S. typhi
B. cereus [4] = assay: MBC by subculturing; assay type: cell-based
Experimental: (§1) The minimum bactericidal concentration (MBC) and minimum fungicidal concentration (MFC) of the synthesized benzimidazole derivatives was determined by subculturing 100 µl of culture from each tube that remained clear in MIC determination onto sterilized petri-plates containing fresh agar medium. The petri-plates were incubated and analyzed for microbial growth visually.

B. subtilis [5] = assay: MBC by subculturing; assay type: cell-based
Experimental: as §1

E. coli [6] = assay: MBC by subculturing; assay type: cell-based; conditions: Escherichia coli
Experimental: as §1

S. aureus [7] = assay: MBC by subculturing; assay type: cell-based; conditions: Staphylococcus aureus
Experimental: as §1

S. typhi [8] = assay: MBC by subculturing; assay type: cell-based; conditions: Salmonella enterica, read-out: MBC S. typhi
Experimental: as §1

A. niger [9] = assay: MFC by subculturing; assay type: cell-based
Experimental: as §1

C. albicans [10] = assay: MFC by subculturing; assay type: cell-based
Experimental: as §1

[11] = test system: M. tuberculosis H37Rv (NCFT/TB/537); assay: Well diffusion susceptibility test (zone of inhibition); assay type: cell-based; conditions: Mycobacterium tuberculosis, 672 h, read-out: Diameter of zone of inhibition against H37Rv (NCFT/TB/537), wells of 8 mm, 50 µg/ml test compound, 25 µg/ml standard drug, 4 weeks, NA = no activity
M. tuberculosis H37Rv [12] = assay: MIC by microplate alamar blue assay; assay type: cell-based; conditions: Mycobacterium tuberculosis, NA = no activity, read-out: MIC against M. tuberculosis H37Rv
M. tuberculosis H37Rv [13] = assay: Minimum lethal concentration (MLC); assay type: cell-based; conditions: Mycobacterium tuberculosis, NA = no activity, read-out: MLC against M. tuberculosis H37Rv
[14] = In vivo LD50, ED50 and toxic dose in mice models; conditions: mouse, dose that killed 50% of the mice population within the group
Experimental: The LD50 and ED50 were determined for the active compounds in mice models infected with Mycobacterium H37Rv (Table 4). […] Thus, ED50 of 1.34 mg/kg was considered safe for each of the compounds. It was observed that this dose was effective and safe for mice in different groups before infecting the mice models with specific TB bacteria as no mortality of any single animal was recorded.
The LD50 (lethal dose) and ED50 (optimum/effective dose) doses were determined for the active compounds in mice models infected with Mycobacterium H37Rv via ethical permission no., NCFT/EC/16/2313 assigned to Collaborative Research Group (CRG), NCFT, New Delhi, India.

[15] = molecular target: mycobacterial isocitrate lyase (Mycobacterium tuberculosis, UniProt P9WKK7); assay: Mycobacterial isocitrate lyase (ICL) assay; assay type: biochemical, M. tuberculosis H37Rv; conditions: read-out: Percent inhibition of enzyme, M. ICL activity
Sequence of mycobacterial isocitrate lyase (P9WKK7 whole entry): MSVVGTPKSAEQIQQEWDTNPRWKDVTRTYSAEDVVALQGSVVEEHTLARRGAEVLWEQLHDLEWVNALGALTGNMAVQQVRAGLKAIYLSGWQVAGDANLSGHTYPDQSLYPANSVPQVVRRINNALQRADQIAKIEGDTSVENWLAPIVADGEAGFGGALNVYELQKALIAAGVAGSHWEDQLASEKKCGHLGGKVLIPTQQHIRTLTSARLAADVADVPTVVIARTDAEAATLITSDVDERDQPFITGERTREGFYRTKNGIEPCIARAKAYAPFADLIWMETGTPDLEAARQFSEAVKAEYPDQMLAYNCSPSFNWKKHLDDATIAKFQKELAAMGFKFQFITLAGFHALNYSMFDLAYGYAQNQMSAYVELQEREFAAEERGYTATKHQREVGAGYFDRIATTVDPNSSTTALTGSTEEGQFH
Experimental: The compounds found potent in in vivo evaluation were assayed for inhibition of mycobacterial enzymes viz., isocitrate lyase, pantothenate synthetase and chorismate mutase.
Isocitrate lyase activity was assayed according to the protocol reported by Dixon and Kornberg (glyoxylate phenyl hydrazone formation) at 10 μM of the compounds.

S. aureus [16] = assay: Tube dilution MIC; conditions: Staphylococcus aureus, 24 h, read-out: MIC S. aureus
B. cereus [17] = assay: Tube dilution MIC; conditions: Bacillus cereus, 24 h, read-out: MIC B. cereus
B. subtilis [18] = assay: Tube dilution MIC; conditions: Bacillus subtilis, 24 h, read-out: MIC B. subtilis
E. coli [19] = assay: Tube dilution MIC; conditions: Escherichia coli, 24 h, read-out: MIC E. coli
[20] = test system: MCF7 (human breast cancer) cell line; assay: Sulforhodamine-B (SRB) cytotoxicity assay; assay type: cell-based; conditions: SRB assay, MCF7 cell line, read-out: IC50 MCF7
[21] = test system: HCT116 (human colorectal) cell line; assay: Sulforhodamine-B (SRB) cytotoxicity assay; assay type: cell-based; conditions: HCT-116, SRB assay, HCT116 cell line, read-out: IC50 HCT116
[22] = Bacillus cereus; read-out: MBC B. cereus
[23] = Bacillus subtilis; read-out: MBC B. subtilis
[24] = Aspergillus niger; read-out: MFC A. niger
[25] = Candida albicans; read-out: MFC C. albicans

Compound	MIC (C. albicans [1]) [µM]	MIC (A. niger [2]) [µM]	MIC (S. typhi [3]) [µM]	MBC (E. coli [6]) [mg/L]	MBC (S. aureus [7]) [mg/L]	MBC (S. typhi [8]) [mg/L]	zone of inhibition at 50 µg/mL [11] [mm]	MIC (M. tuberculosis H37Rv [12]) [mg/L]	MBC (M. tuberculosis H37Rv [13]) [mg/L]	MIC (S. aureus [16]) [µM]	MIC (B. cereus [17]) [µM]	MIC (B. subtilis [18]) [µM]	MIC (E. coli [19]) [µM]	MBC (B. cereus [4]; [22]) [mg/L]	MBC (B. subtilis [5]; [23]) [mg/L]	MFC (A. niger [9]; [24]) [mg/L]	MFC (C. albicans [10]; [25]) [mg/L]	IC50 [21] [µM]	also measured
OC(Cn1cncn1)(Cn1cncn1)c1ccc(F)cc1F [Fluconazole, reference compound]	470 (≈ 144 µg/mL)	470 (≈ 144 µg/mL)	–	–	–	–	–	–	–	–	–	–	–	–	–	–	–	–	–
COc1ccc(NC(=O)CSc2nc3ccccc3n2C(=O)c2ccccc2)cc1 [Compound 18, 2-(1-Benzoyl-1H-benzo[d]imidazol-2-ylthio)-N-(4-methoxyphenyl)acetamide]	15 (≈ 6.26 µg/mL)	30 (≈ 12.5 µg/mL)	30 (≈ 12.5 µg/mL)	50 (≈ 120 µM)	> 50	> 50	> 20	12.5 (≈ 29.9 µM)	25 (≈ 59.9 µM)	30 (≈ 12.5 µg/mL)	30 (≈ 12.5 µg/mL)	30 (≈ 12.5 µg/mL)	30 (≈ 12.5 µg/mL)	–	–	–	–	–	MBC (B. cereus [4]; Bacillus cereus, read-out: MBC B. cereus): > 50 mg/L; MBC (B. subtilis [5]; Bacillus subtilis, read-out: MBC B. subtilis): > 50 mg/L; MFC (A. niger [9]; Aspergillus niger, read-out: MFC A. niger): > 50 mg/L; MFC (C. albicans [10]; Candida albicans, read-out: MFC C. albicans): 50 mg/L (≈ 120 µM); LD50 [14]: 3.15 mg/kg; inhibition at 10 µM [15]: 64.6%
O=C(CSc1nc2ccccc2n1C(=O)c1ccccc1)Nc1cccc(Cl)c1 [Compound 5, 2-(1-Benzoyl-1H-benzo[d]imidazol-2-ylthio)-N-(3-chlorophenyl)acetamide]	15 (≈ 6.33 µg/mL)	30 (≈ 12.7 µg/mL)	30 (≈ 12.7 µg/mL)	50 (≈ 119 µM)	50 (≈ 119 µM)	50 (≈ 119 µM)	8	17.8 (≈ 42.2 µM)	28.1 (≈ 66.6 µM)	30 (≈ 12.7 µg/mL)	30 (≈ 12.7 µg/mL)	30 (≈ 12.7 µg/mL)	30 (≈ 12.7 µg/mL)	> 50	50 (≈ 119 µM)	> 50	50 (≈ 119 µM)	131	IC50 [20]: 83.1 µM
O=c1[nH]cc(F)c(=O)[nH]1 [Compound 5-FU, 5-fluorouracil, reference compound]	–	–	–	–	–	–	–	–	–	–	–	–	–	–	–	–	–	12.5	–
[H]/N=C(/N)N[C@H]1[C@H](O)[C@@H](O)[C@H](O[C@@H]2O[C@@H](C)[C@](O)(C=O)[C@H]2O[C@@H]2O[C@@H](CO)[C@H](O)[C@@H](O)[C@@H]2NC)[C@@H](N/C(N)=N\[H])[C@@H]1O [Streptomycin, reference compound]	–	–	–	–	–	–	> 20	12.5 (≈ 21.5 µM)	25 (≈ 43 µM)	–	–	–	–	–	–	–	–	–	–
Cc1ccc(NC(=O)CSc2nc3ccccc3n2C(=O)c2ccccc2)c(C)c1 [Compound 20, 2-(1-Benzoyl-1H-benzo[d]imidazol-2-ylthio)-N-(2,4-dimethylphenyl)acetamide]	15 (≈ 6.23 µg/mL)	30 (≈ 12.5 µg/mL)	30 (≈ 12.5 µg/mL)	> 50	50 (≈ 120 µM)	50 (≈ 120 µM)	10	15 (≈ 36.1 µM)	28 (≈ 67.4 µM)	30 (≈ 12.5 µg/mL)	30 (≈ 12.5 µg/mL)	30 (≈ 12.5 µg/mL)	30 (≈ 12.5 µg/mL)	> 50	50 (≈ 120 µM)	> 50	25 (≈ 60.2 µM)	–	–
COc1cccc(NC(=O)CSc2nc3ccccc3n2C(=O)c2ccccc2)c1 [Compound 14, 2-(1-Benzoyl-1H-benzo[d]imidazol-2-ylthio)-N-(3-methoxyphenyl)acetamide]	30 (≈ 12.5 µg/mL)	30 (≈ 12.5 µg/mL)	30 (≈ 12.5 µg/mL)	50 (≈ 120 µM)	> 50	> 50	–	–	–	30 (≈ 12.5 µg/mL)	30 (≈ 12.5 µg/mL)	30 (≈ 12.5 µg/mL)	30 (≈ 12.5 µg/mL)	> 50	> 50	> 50	50 (≈ 120 µM)	95.8	IC50 [20]: 95.8 µM
Cc1ccccc1NC(=O)CSc1nc2ccccc2n1C(=O)c1ccccc1 [Compound 16, 2-(1-Benzoyl-1H-benzo[d]imidazol-2-ylthio)-N–o-tolylacetamide]	16 (≈ 6.42 µg/mL)	31 (≈ 12.4 µg/mL)	31 (≈ 12.4 µg/mL)	> 50	50 (≈ 125 µM)	50 (≈ 125 µM)	10	15 (≈ 37.4 µM)	28 (≈ 69.7 µM)	31 (≈ 12.4 µg/mL)	31 (≈ 12.4 µg/mL)	31 (≈ 12.4 µg/mL)	31 (≈ 12.4 µg/mL)	> 50	50 (≈ 125 µM)	> 50	25 (≈ 62.3 µM)	87.2	IC50 [20]: 124 µM
Cc1cccc(NC(=O)CSc2nc3ccccc3n2C(=O)c2ccccc2)c1 [Compound 19, 2-(1-Benzoyl-1H-benzo[d]imidazol-2-ylthio)-N-m-tolylacetamide]	16 (≈ 6.42 µg/mL)	31 (≈ 12.4 µg/mL)	31 (≈ 12.4 µg/mL)	> 50	50 (≈ 125 µM)	> 50	–	–	–	31 (≈ 12.4 µg/mL)	31 (≈ 12.4 µg/mL)	31 (≈ 12.4 µg/mL)	31 (≈ 12.4 µg/mL)	> 50	50 (≈ 125 µM)	> 50	50 (≈ 125 µM)	–	–
[H]/N=C(/N)N[C@H]1[C@H](O)[C@@H](O)[C@H](O[C@@H]2O[C@@H](C)[C@](O)(C=O)[C@H]2O[C@@H]2O[C@@H](CO)[C@H](O)[C@@H](O)[C@@H]2NC)[C@@H](N/C(N)=N\[H])[C@@H]1O [Streptomycin sulphate, streptomycin sulphate, reference compound]	–	–	–	–	–	–	–	–	–	–	–	–	–	–	–	–	–	–	inhibition at 10 µM [15]: 75.1%
CC1=C(C(=O)O)N2C(=O)[C@@H](NC(=O)[C@H](N)c3ccc(O)cc3)[C@H]2SC1 [Cefadroxil, reference compound]	–	–	370 (≈ 134 µg/mL)	–	–	–	–	–	–	370 (≈ 134 µg/mL)	370 (≈ 134 µg/mL)	370 (≈ 134 µg/mL)	370 (≈ 134 µg/mL)	–	–	–	–	–	–
